Results reported in ChEMBL document CHEMBL5150077, “Identification of TUL01101: A Novel Potent and Selective JAK1 Inhibitor for the Treatment of Rheumatoid Arthritis” (J Med Chem, 2022).
Calls of active or inactive are those of the source. The rule behind the calls is not given here.

What was measured:
[1] = Clearance in beagle dog at 0.2 mg/kg, iv measured for 24 hrs by LC-MS/MS analysis; assay type: ADME, organism-based, Canis lupus familiaris; settings: in vivo
[2] = Toxicity in rat assessed as reduction in body weight at 10 mg/kg/day, po administered via gavage once a day pretreated for 9 weeks prior to co-cage and measured on day 84 relative to control; assay type: organism-based; design: scale not given: the % may be the effect or the level left; settings: in vivo, 2016 h, time 84 day
[3] = target: Serine/threonine-protein kinase MAK (Homo sapiens) (UniProt P20794); experiment: Inhibition of human MAK assessed as residual activity at 30 uM relative to control
[4] = target: Platelet-derived growth factor receptor beta (Homo sapiens) (UniProt P09619); experiment: Inhibition of human PDGFRbeta assessed as residual activity at 30 uM relative to control
Rattus norvegicus [5] = experiment: Antiarthritic activity in adjuvant-induced arthritis rat model assessed as reduction in paw volume at 1 mg/kg, po administered twice a day for 14 days starting from day 13 to 27 post immunization and measured every 3 days a week; assay type: functional; settings: time 14 day
[6] = Elimination half life in Sprague-Dawley rat at 10 mg/kg, po measured for 24 hrs by LC-MS/MS analysis; assay type: ADME, organism-based; settings: in vivo, read-out: beta t1/2 (converted)
[7] = target: [Pyruvate dehydrogenase (acetyl-transferring)] kinase isozyme 1, mitochondrial (Homo sapiens) (UniProt Q15118); experiment: Inhibition of human PDK1 assessed as residual activity at 30 uM relative to control
[8] = target: Aurora kinase A (Homo sapiens) (UniProt O14965); experiment: Inhibition of human Aurora A assessed as residual activity at 30 uM relative to control
[9] = target: Platelet-derived growth factor receptor alpha (Homo sapiens) (UniProt P16234); experiment: Inhibition of human PDGFRalpha assessed as residual activity at 30 uM relative to control
[10] = target: High affinity nerve growth factor receptor (Homo sapiens) (UniProt P04629); experiment: Inhibition of human TRK assessed as residual activity at 30 uM relative to control
[11] = target: Serine/threonine-protein kinase B-raf (Homo sapiens) (UniProt P15056); experiment: Inhibition of human B-raf assessed as residual activity at 30 uM relative to control
[12] = Volume of distribution at steady state in beagle dog at 0.2 mg/kg, iv measured for 24 hrs by LC-MS/MS analysis; assay type: ADME, organism-based, Canis lupus familiaris; settings: in vivo, read-out: Vdss
[13] = Toxicity in rat assessed as reduction in food intake at 10 mg/kg/day, po administered via gavage once a day pretreated for 9 weeks prior to co-cage and measured on day 74; assay type: organism-based; design: scale not given: the % may be the effect or the level left; settings: in vivo, 1776 h, time 74 day
[14] = target: Glycogen synthase kinase-3 beta (Homo sapiens) (UniProt P49841); experiment: Inhibition of human GSK3beta assessed as residual activity at 30 uM relative to control
[15] = target: Serine/threonine-protein kinase 26 (Homo sapiens) (UniProt Q9P289); experiment: Inhibition of human MST4 assessed as residual activity at 30 uM relative to control
[16] = target: Misshapen-like kinase 1 (Homo sapiens) (UniProt Q8N4C8); experiment: Inhibition of human MINK assessed as residual activity at 30 uM relative to control
Rattus norvegicus [17] = experiment: Antiarthritic activity in adjuvant-induced arthritis rat model assessed as clinical score at 1 mg/kg, po administered twice a day for 14 days starting from day 13 to 27 post immunization and measured every 3 days a week; assay type: functional; settings: time 14 day
Rattus norvegicus [18] = experiment: Antiarthritic activity in adjuvant-induced arthritis rat model assessed as recovery of body weight at 1 to 30 mg/kg, po administered twice a day for 14 days starting from day 13 to 27 post immunization and measured every 3 days a week; assay type: functional, organism-based; settings: dose 1-30 mg/kg, time 14.0 day
[19] = target: Tyrosine-protein kinase SYK (Homo sapiens) (UniProt P43405); experiment: Inhibition of human SYK assessed as residual activity at 30 uM relative to control
Mus musculus = experiment: Antiarthritic activity in collagen-induced rheumatoid arthritis DBA/1 mouse model assessed as reduction in incidence rate at 15 mg/kg, po BID administered for 14 days starting from 7 days before immunization to 21 days after immunization and measured on day 34 post immunization; assay type: functional; design: scale not given: the % may be the effect or the level left; settings: time 14 day

Sequence of Glycogen synthase kinase-3 beta (Homo sapiens) (P49841 whole entry, looked up): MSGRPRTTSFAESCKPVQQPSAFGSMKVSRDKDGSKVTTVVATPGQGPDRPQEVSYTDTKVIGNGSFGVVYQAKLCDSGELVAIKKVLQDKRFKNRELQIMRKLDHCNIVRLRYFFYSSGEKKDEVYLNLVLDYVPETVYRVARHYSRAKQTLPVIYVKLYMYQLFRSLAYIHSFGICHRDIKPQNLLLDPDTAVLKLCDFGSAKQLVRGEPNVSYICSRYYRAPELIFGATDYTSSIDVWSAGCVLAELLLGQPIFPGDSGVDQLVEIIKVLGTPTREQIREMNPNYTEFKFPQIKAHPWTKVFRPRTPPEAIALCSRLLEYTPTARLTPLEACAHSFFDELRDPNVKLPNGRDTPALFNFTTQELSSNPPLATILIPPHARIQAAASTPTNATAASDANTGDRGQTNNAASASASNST
Sequence of Aurora kinase A (Homo sapiens) (O14965 whole entry): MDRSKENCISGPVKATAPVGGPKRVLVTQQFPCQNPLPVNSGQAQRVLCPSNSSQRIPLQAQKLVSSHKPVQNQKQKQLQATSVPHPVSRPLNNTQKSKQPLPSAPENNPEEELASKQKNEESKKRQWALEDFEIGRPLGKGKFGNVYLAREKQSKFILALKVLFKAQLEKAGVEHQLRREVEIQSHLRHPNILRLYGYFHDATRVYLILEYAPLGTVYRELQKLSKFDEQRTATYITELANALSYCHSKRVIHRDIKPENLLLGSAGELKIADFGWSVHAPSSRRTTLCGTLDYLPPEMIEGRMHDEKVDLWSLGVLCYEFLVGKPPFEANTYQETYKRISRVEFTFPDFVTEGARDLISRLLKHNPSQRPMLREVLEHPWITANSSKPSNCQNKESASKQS
Sequence of High affinity nerve growth factor receptor (Homo sapiens) (P04629 33-796 limits assumed): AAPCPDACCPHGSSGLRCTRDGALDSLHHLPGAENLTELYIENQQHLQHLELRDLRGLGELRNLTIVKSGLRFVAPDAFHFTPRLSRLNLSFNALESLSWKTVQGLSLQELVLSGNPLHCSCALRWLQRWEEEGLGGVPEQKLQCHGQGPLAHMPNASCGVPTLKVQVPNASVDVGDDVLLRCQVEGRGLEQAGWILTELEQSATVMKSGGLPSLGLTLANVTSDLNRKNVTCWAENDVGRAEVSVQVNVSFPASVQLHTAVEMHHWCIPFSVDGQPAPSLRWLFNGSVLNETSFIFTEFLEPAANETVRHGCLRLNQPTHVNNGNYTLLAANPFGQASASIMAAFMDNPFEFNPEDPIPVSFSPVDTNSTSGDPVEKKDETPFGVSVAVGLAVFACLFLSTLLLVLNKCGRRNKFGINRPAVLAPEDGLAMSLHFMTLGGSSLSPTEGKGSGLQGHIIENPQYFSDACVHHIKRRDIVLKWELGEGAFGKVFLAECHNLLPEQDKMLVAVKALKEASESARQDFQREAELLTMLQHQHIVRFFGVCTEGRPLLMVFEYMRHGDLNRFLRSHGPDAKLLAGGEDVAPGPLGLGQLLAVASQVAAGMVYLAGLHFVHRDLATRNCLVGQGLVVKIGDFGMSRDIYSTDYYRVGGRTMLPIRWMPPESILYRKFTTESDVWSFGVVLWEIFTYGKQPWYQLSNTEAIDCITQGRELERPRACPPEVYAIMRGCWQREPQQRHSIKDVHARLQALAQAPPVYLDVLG
Sequence of Serine/threonine-protein kinase 26 (Homo sapiens) (Q9P289 2-416 limits assumed): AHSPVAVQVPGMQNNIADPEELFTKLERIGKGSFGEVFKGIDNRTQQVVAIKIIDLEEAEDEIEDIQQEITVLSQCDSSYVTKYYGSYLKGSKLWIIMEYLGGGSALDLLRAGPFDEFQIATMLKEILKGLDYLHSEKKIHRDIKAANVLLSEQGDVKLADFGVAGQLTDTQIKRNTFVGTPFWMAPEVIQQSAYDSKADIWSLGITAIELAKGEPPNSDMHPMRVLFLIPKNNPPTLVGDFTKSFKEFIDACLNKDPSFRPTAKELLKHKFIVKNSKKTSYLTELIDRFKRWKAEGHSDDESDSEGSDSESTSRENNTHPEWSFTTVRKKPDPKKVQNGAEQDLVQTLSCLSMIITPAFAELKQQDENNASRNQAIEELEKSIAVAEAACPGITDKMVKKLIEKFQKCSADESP
Sequence of Misshapen-like kinase 1 (Homo sapiens) (Q8N4C8 whole entry, looked up): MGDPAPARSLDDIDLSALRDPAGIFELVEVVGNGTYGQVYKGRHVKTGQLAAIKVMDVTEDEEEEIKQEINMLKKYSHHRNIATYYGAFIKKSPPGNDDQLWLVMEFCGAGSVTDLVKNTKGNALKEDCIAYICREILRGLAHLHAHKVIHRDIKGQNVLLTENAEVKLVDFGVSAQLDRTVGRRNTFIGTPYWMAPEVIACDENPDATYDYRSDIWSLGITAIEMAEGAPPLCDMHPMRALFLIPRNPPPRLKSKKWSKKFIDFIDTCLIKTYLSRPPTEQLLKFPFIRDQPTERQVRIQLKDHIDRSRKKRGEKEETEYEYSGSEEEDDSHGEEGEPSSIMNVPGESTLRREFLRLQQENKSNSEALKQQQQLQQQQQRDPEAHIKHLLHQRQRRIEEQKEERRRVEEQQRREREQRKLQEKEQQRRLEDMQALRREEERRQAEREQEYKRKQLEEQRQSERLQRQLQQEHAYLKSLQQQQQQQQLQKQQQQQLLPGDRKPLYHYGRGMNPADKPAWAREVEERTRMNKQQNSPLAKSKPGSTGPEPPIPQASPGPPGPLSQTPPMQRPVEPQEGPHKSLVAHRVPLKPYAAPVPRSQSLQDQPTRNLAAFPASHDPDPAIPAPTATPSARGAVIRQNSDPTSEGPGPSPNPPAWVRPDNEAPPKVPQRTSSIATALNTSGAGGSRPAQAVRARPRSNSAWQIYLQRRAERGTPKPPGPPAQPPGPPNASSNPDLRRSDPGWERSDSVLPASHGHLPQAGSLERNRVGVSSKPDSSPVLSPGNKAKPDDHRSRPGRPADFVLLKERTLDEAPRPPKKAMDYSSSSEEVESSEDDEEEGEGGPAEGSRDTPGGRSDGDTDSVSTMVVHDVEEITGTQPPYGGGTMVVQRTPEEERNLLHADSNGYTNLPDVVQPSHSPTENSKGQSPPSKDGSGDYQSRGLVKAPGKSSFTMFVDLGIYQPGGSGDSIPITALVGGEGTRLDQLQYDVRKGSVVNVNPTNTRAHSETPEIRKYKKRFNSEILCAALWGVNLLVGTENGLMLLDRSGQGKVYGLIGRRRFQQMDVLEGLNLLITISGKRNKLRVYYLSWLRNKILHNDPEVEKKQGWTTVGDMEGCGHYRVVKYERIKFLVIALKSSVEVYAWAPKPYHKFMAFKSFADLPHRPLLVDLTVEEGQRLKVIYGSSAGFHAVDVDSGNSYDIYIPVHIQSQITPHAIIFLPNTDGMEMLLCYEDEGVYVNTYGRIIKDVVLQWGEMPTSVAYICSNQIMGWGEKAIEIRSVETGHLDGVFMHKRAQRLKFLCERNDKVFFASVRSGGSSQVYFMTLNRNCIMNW
Sequence of Platelet-derived growth factor receptor alpha (Homo sapiens) (P16234 whole entry): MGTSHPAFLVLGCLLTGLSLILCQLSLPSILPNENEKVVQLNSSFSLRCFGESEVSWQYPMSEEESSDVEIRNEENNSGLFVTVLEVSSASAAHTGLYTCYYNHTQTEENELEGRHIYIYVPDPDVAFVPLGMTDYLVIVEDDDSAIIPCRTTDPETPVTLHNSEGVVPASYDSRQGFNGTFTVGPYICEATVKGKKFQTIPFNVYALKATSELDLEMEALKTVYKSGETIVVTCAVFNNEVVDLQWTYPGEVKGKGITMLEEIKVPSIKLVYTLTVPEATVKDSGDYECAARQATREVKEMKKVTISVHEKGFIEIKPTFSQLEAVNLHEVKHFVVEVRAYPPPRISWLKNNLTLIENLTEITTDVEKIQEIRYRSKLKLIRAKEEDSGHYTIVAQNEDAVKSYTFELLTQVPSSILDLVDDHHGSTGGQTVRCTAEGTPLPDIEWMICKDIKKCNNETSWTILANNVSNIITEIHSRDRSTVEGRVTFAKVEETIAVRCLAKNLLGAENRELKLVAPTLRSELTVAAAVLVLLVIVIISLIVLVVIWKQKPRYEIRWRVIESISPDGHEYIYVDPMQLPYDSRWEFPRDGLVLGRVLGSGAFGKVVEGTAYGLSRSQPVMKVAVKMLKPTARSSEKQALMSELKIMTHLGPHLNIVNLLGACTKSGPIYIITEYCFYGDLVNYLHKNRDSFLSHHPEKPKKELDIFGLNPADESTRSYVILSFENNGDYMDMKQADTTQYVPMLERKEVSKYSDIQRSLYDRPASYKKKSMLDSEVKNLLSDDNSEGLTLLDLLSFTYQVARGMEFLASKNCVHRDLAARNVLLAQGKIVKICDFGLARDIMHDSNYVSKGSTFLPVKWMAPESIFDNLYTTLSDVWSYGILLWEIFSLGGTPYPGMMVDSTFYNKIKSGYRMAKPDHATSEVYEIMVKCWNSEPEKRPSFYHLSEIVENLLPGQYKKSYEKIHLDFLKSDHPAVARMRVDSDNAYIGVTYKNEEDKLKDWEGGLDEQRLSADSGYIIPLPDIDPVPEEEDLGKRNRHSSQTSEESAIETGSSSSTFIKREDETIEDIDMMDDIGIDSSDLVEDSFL
Sequence of Serine/threonine-protein kinase MAK (Homo sapiens) (P20794 whole entry): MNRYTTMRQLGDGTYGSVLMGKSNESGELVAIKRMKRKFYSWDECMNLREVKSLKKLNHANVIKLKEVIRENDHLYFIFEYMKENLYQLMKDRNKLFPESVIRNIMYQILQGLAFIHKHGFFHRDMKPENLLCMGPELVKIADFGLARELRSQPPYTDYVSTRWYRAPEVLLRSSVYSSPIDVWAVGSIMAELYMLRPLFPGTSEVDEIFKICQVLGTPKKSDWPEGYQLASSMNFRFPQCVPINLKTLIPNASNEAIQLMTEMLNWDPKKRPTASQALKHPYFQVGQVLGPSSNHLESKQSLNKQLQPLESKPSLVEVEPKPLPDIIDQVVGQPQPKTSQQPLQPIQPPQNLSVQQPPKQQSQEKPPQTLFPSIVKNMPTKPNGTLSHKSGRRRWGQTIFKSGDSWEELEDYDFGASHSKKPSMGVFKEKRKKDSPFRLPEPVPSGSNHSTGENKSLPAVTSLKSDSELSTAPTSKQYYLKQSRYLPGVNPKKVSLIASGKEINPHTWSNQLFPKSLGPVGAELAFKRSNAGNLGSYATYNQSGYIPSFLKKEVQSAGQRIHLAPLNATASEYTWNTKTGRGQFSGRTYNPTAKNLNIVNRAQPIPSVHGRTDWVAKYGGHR

## O=C(Nc1nc2cccc(C3CCC4(CC3)CN(C(=O)[C@@H]3CC3(F)F)C4)n2n1)C1CC1
[1]
  clearance: 5.73 mL/min/kg
[2]
  Activity: 5.53%
[3]
  Activity: 104%
[4]
  Activity: 85%
Rattus norvegicus [5]
  Activity: 1.91 mL
[6]
  half-life: 3.06 h
[7]
  Activity: 80%
[8]
  Activity: 57%
[9]
  Activity: 102%
[10]
  Activity: 89%
[11]
  Activity: 84%
[12]
  Vd: 3.23 L/kg
[13]
  Activity: 6.1%
[14]
  Activity: 93%
[15]
  Activity: 99%
[16]
  Activity: 107%
Rattus norvegicus [17]
  Activity: 5.4
Rattus norvegicus [18]
  Activity: Active
[19]
  Activity: 88%

## O=C(Nc1nc2cccc(C3CCC4(CC3)CCN(C(=O)[C@@H]3CC3(F)F)CC4)n2n1)C1CC1
Mus musculus
  Activity: 88%
